Among the data in patent US11254651B2, “Histone methyltransferase inhibitors” (GLOBAL BLOOD THERAPEUTICS, INC., priority 2016, dated 2022) are IC50 values, retold here.

The assay addresses T1, G9a (Homo sapiens, UniProt Q96KQ7).
T1 sequence (Q96KQ7 1-1210): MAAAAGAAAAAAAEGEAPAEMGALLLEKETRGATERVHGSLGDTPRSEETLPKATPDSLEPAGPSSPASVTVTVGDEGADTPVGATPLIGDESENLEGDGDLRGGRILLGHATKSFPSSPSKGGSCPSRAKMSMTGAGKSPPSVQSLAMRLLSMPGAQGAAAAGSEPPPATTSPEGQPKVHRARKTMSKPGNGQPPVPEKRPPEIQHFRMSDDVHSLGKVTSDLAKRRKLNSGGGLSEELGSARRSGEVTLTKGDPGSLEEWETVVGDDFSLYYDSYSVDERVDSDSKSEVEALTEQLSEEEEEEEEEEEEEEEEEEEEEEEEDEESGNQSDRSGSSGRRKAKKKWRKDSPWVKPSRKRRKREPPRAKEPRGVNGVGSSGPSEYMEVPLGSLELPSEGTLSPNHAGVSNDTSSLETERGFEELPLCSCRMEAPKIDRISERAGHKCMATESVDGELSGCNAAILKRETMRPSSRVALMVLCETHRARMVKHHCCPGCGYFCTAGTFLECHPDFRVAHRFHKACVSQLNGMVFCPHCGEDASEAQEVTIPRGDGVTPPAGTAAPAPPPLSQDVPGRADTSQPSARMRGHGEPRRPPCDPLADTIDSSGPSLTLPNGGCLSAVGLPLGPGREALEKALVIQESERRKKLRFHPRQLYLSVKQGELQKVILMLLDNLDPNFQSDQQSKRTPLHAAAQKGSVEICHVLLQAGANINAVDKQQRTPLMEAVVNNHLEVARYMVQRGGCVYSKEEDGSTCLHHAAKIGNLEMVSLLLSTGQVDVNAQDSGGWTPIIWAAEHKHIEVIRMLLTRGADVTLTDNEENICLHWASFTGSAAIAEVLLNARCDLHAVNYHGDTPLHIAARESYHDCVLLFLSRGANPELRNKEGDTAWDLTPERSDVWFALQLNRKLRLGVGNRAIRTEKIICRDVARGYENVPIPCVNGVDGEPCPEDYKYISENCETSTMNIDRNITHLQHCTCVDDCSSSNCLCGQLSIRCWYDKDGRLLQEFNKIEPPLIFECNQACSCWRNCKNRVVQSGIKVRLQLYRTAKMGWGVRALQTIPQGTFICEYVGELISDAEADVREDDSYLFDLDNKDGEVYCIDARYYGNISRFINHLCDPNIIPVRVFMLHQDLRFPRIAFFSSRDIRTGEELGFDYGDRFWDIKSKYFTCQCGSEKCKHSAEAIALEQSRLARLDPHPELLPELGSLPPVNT
Kind of assay: G9a AlphaLISA enzymatic activity assay. The class given is biochemical. The conditions noted are these: 0.15 nM G9a, 15 uM S-adenosyl-methionine, 100 nM biotinylated histone 3 peptide (1-21), 1 hour room temperature. An excerpt:
The G9a AlphaLISA assay was used to detect the methyl modifications of a biotinylated histone H3 peptide by the compounds. These modifications are done by the histone methyl transferase activity of the G9a enzyme. The assay consists of reading a chemiluminescent signal at 615 nm; this signal is generated by a laser excitation at 680 nm that transfers a reactive singlet oxygen between the donor beads and acceptor beads. Donor beads are streptavidin conjugated and bind to the biotin on the peptide. Acceptor beads are conjugated with an antibody that recognizes the specific G9a methyl mark on the peptide. If there is a methyl mark on the peptide, the acceptor beads will bind to the peptide. Upon binding, the acceptor beads will be in close proximity (<200 nm) of the donor beads and when the donor beads are excited, the transfer of the oxygen can occur and a strong signal will be generated. If there is no methyl mark, the interaction between beads will not occur and signal will be at background levels.
For the assay, the following buffer was used to set up reactions: 50 mM Tris-HCl pH9, 50 mM NaCl, 0.01% Tween-20 and 1 mM DTT (added fresh prior to starting the reactions). The assay is set up by adding a final concentration of 0.15 nM G9a, 15 uM S-adenosyl-methionine and, 100 nM biotinylated histone 3 peptide (1-21). The reaction is incubated at room temperature for 1 hour, and subsequently quenched by the addition of the acceptor beads (anti-H3k9me2 AlphaLISA acceptor beads, PerkinElmer #AL117) at a final concentration of 20 ug/mL. The acceptor beads are incubated for 1 hour. After 1 hour, the donor beads are added at a final concentration of 20 ug/mL (Alpha Streptavidin donor beads, PerkinElmer #6760002). Donor beads are incubated for 0.5 hours. Both donor and acceptor beads are resuspended in AlphaLISA 5X Epigenetics Buffer 1 Kit (PerkinElmer #AL008) prior to addition to the reaction. All manipulations and incubations with the donor and acceptor beads are done in subdued light. Signal is detected in an EnVision plate reader in Alpha mode (see ACS Med Chem Lett. 2014 Jan. 2; 5(2):205-9. doi: 10.1021/m1400496h. eCollection 2014. Discovery and development of potent and selective inhibitors of histone methyltransferase g9a.)
Percent inhibition was calculated for each compound dilution and the concentration that produced 50% inhibition was calculated. This value is presented as the IC50.

Structures can show the parent of a compound that is named as a salt.

A word on the IC50: it is the concentration that inhibits the measured activity by half. As to “2-ethoxy-N-methyl-3-[3-(pyrrolidin-1-yl)propoxy]acridin-9-amine formate and 3-ethoxy-N-methyl-2-[3-(pyrrolidin-1-yl)propoxy]acridin-9-amine formate (1:1) [Entry 118]”, the IC50 was determined as 75.5 nM.
`CNc1c2ccccc2nc2cc(OCCCN3CCCC3)c(OC)cc12` [Entry 1, 2-methoxy-N-methyl-3-[3-(pyrrolidin-1-yl)propoxy]acridin-9-amine] came in with a concentration for half-maximal inhibition (IC50) of 1.3 nM.
As for `COc1cc2c(NC3CCOCC3)c3ccccc3nc2cc1OCCCN1CCCC1` [Entry 3, 2-methoxy-N-(oxan-4-yl)-3-[3-(pyrrolidin-1-yl)propoxy]-acridin-9-amine trifluoroacetate], the figure is 4.4 nM.
As for `COc1cc2c(NC3CCN(C)CC3)c3ccccc3nc2cc1OCCCN1CCCC1` [Entry 4, 2-methoxy-N-(1-methylpiperidin-4-yl)-3-[3-(pyrrolidin-1-yl)propoxy]acridin-9-amine trifluoroacetate], the figure is 1.1 nM; as for `COc1cc2c(O)c3ccccc3nc2cc1OCCCN1CCCC1` [Entry 6, 2-methoxy-3-[3-(pyrrolidin-1-yl)propoxy]acridin-9-ol formate], 42 nM.
As for `CCOc1c2ccccc2nc2cc(OCCCN3CCCC3)c(OC)cc12` [Entry 7, 9-ethoxy-2-methoxy-3-[3-(pyrrolidin-1-yl)propoxy]acridine formate], the figure is 1400 nM; as for `CNc1c2ccccc2nc2cc(OCCCN3CCCC3)c(Cl)cc12` [Entry 9, 2-chloro-N-methyl-3-[3-(pyrrolidin-1-yl)propoxy]acridin-9-amine formate], 26.1 nM; as for `CNc1c2ccccc2nc2cc(OCCCN3CCCC3)ccc12` [Entry 10, N-methyl-3-[3-(pyrrolidin-1-yl)propoxy]acridin-9-amine formate], 56.7 nM.
`CNc1c2ccccc2nc2cc(OCCCN3CCCC3)c(C)cc12` [Entry 11, N,2-dimethyl-3-[3-(pyrrolidin-1-yl)propoxy]acridin-9-amine formate]: the midpoint of inhibition, the IC50, lay at 1230 nM.
`CCN(CC)CCCOc1cc2nc3ccccc3c(NC)c2cc1OC` [Entry 14, 3-[3-(diethylamino)propoxy]-2-methoxy-N-methylacridin-9-amine trifluoroacetate] displayed an IC50 of 76 nM.
With `COc1cc2c(NC3CCN(C(C)C)CC3)c3c(nc2cc1OCCCN1CCCC1)CCCC3` [Entry 16, 7-methoxy-N-[1-(propan-2-yl)piperidin-4-yl]-6-[3-(pyrrolidin-1-yl)propoxy]-1,2,3,4-tetrahydroacridin-9-amine trifluoroacetate] the figure was 11 nM.
As for `COc1cc2cc3c(nc2cc1OCCCN1CCCC1)CCCC3` [Entry 17, 7-methoxy-6-[3-(pyrrolidin-1-yl)propoxy]-1,2,3,4-tetrahydroacridine formate], the figure is 510 nM; as for `COc1cc2c(NC(C)C)c3c(nc2cc1OCCCN1CCCC1)CCC3` [Entry 19, 7-methoxy-N-(propan-2-yl)-6-[3-(pyrrolidin-1-yl)propoxy]-1H,2H,3H-cyclopenta[b]quinolin-9-amine formate], 10 nM; as for `CNc1c2c(nc3cc(OCCCN4CCC(F)C4)c(OC)cc13)CCC2` (stereo not shown) [Entry 29, 6-[3-(3-fluoropyrrolidin-1-yl)propoxy]-7-methoxy-N-methyl-1H,2H,3H-cyclopenta[b]quinolin-9-amine], 250 nM.
As for `COc1cc2c(NC3CC3)c3c(nc2cc1OCCCN1CCCC1)CCC3` [Entry 31, N-cyclopropyl-7-methoxy-6-[3-(pyrrolidin-1-yl)propoxy]-1H,2H,3H-cyclopenta[b]quinolin-9-amine trifluoroacetate], the figure is 17.5 nM.
`COc1cc2c(NCC3CC3)c3c(nc2cc1OCCCN1CCCC1)CCC3` [Entry 32, N-(cyclopropylmethyl)-7-methoxy-6-[3-(pyrrolidin-1-yl)propoxy]-1H,2H,3H-cyclopenta[b]quinolin-9-amine formate] returned an IC50 of 14 nM. This IC50 and that of the compound before are within 1.5-fold of each other.
